Where two headings read alike, the source gives them in different places. Values belong to the compound of their own block, whether it stands above or below them.
How the values were obtained:
Format in all cases: biochemical
human thrombin = target: T1, human thrombin (Homo sapiens, UniProt P00734); assay: Thrombin activity and kinetic/inhibitor assay; conditions: for inhibition type against thrombin: from Kik/Kiv ratio and Lineweaver–Burk plots; for activity of thrombin: highest concentration of each compound, p < 0.01; for IC50 / Ki / Kik/Kiv / Kcat / Vmax: thrombin; for Vmax value of thrombin decreased by, fold of non-treated: vs non-treated 0.381 ± 0.011 mU/min; for Kcat values of thrombin reduced by, fold of non-treated: vs non-treated 109.87 ± 3.16 s^−1
T1 construct: purchased Sigma-Aldrich
Method: (§1) To determine the thrombin activity, various concentrations of compounds were treated with 1 U human thrombin in 100 μL of 20 mM Tris-HCl, as previously described. The reaction solutions were incubated for 15 min at 37 °C. After the incubation, 1 mM chromogenic substrate for thrombin (S-2238, HD-Phe-Pip-Arg-p-nitroanilide) was added and incubated for 1 h at 37 °C. Absorbance was measured at 405 nm to determine the enzymatic activity. To determine FXa activity, various concentrations of the compounds were mixed with 1 U human FXa in 20 mM Tris-HCl (pH 7.4) in volume of 100 μL, followed by incubation for 15 min at 37 °C. After adding 1 mM N-benzoyl-Ile-Glu-Gly-Arg-p-nitroanilide, a highly specific chromogenic peptide substrate for FXa, the reaction solutions were incubated for 1 h at 37 °C. The residual activity of FXa was measured at 405 nm and is presented as a percentage of inhibition. To investigate FXIIIa activity, various concentrations of the compounds were mixed with 1 U human FXIIIa in 20 mM Tris-HCl (pH 7.4) in a volume of 100 μL, followed by, incubation for 15 min at 37 °C as previously described. The residual activity of FXIIIa was measured using casein and fibrinogen-HRP, according to the manufacturer’s instructions, and was presented as a percentage of inhibition. The negative control was generated by treatment with only thrombin, FXa, or FXIIIa without treatment with any compound.
(§2) Kinetic assays were performed using PA, IVA, and 4-HA for procoagulant proteases (thrombin and FXa) and fibrinoligase (FXIIIa). The kinetic constants were calculated using Lineweaver–Burk plots based on the initial reaction rates with different concentrations (0.1, 0.5, 1, and 2 mM) of each substrate for thrombin, FXa, and FXIIIa treated with or without the compounds (0.065, 0.13, 0.33, 0.65, and 1.30 mM [1–20 μg]) in a total volume of 100 μL. The Michaelis–Menten constant (Km) and maximal velocity (Vmax) were calculated from the x and y intercepts, respectively. […] The median inhibitory concentration (IC50) was defined as the concentration required to reach a 50% reduction in the activity of the three target factors. The Kik and Kiv inhibition constants were calculated using a previously described method. The inhibition type of the compounds against the three target factors was evaluated according to a previously described inhibition type definition.

human FXa = target: T2, human FXa (Homo sapiens, UniProt P00742); assay: FXa activity and kinetic/inhibitor assay; conditions: for FXa activity: 1–20 μg, vs control, p < 0.05; for IC50 / Kik/Kiv / Kcat / Vmax / Ki: FXa; for inhibition type against FXa: from Kik/Kiv ratio and Lineweaver–Burk plots
T2 construct: purchased Sigma-Aldrich
T2 sequence (P00742 235-488 limits assumed): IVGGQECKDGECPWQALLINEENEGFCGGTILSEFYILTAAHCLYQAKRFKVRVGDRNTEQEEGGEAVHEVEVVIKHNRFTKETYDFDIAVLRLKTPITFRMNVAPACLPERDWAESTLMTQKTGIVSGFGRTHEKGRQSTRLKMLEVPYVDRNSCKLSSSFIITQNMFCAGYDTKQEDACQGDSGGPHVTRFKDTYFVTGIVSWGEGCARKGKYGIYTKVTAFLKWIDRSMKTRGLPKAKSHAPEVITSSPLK
T2 sequence (P00742 41-179 limits assumed): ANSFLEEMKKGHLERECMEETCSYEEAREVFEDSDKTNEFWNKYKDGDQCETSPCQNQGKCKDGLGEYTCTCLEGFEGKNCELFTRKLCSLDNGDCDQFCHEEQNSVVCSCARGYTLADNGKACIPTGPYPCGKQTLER
Method: as §1, §2

human FXIIIa = target: T3, human FXIIIa (Homo sapiens, UniProt P00488); assay: FXIIIa activity and kinetic/inhibitor assay; conditions: for FXIIIa activity: 1–20 μg, vs control, p < 0.05; for IC50 / Ki / Kik/Kiv / Kcat / Vmax: FXIIIa; for inhibition type against FXIIIa: from Kik/Kiv ratio and Lineweaver–Burk plots
T3 construct: purchased Sigma-Aldrich
T3 sequence (P00488 39-732 limits assumed): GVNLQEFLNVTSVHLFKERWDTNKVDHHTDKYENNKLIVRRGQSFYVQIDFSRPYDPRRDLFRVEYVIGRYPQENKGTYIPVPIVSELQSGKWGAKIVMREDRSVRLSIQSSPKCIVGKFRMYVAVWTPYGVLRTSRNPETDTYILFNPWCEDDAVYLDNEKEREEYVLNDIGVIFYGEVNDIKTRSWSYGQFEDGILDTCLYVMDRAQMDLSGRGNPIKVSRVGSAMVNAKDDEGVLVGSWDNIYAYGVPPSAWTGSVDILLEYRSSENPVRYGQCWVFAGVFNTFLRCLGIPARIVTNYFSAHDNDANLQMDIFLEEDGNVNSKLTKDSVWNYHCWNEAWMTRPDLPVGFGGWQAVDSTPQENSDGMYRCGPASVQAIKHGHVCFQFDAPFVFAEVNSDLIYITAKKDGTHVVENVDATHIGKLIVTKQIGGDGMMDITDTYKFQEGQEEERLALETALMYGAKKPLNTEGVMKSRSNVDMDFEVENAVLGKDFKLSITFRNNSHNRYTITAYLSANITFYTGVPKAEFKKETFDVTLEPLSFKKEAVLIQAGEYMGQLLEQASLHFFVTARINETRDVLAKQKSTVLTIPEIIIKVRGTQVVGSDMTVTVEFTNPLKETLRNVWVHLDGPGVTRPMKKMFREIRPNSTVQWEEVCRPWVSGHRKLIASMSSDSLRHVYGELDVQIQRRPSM
Method: as §1, §2

human plasma = assay: Coagulation assay, APTT; conditions: for APTT, fold of control / activated partial thromboplastin time (APTT): 100 μg; for activated partial thromboplastin time (APTT): control 39.5 ± 1.5 s, p < 0.01
Method: A coagulation assay was performed to evaluate the prolongation potential of the compounds in blood coagulation by measuring APTT, PT, and TT, as previously described. After pretreatment of the compounds with human plasma for 10 min, APTT, PT, and TT were determined by a coagulometer (Thrombostat 1) manufactured by Behnk Elektronik, Germany.

[1] = read-out: Kiv (inhibition constant using Vmax)

inhibition type against thrombin (human thrombin): uncompetitive inhibition type
activity of thrombin (human thrombin): significantly decreased
IC50 (human thrombin): 925 µM
Ki (human thrombin): 923 µM
Kik/Kiv (human thrombin): 1.1
Kcat (human thrombin; compound 0.065 mM (1 μg)): 87.72 ± 1.32 s⁻¹
Vmax (human thrombin; compound 0.065 mM (1 μg)): 0.304 ± 0.013 mU/min
Kcat (human thrombin; compound 0.13 mM (2 μg)): 94.13 ± 2.08 s⁻¹
Vmax (human thrombin; compound 0.13 mM (2 μg)): 0.326 ± 0.018 mU/min
Kcat (human thrombin; compound 0.325 mM (5 μg)): 67.14 ± 0.93 s⁻¹
Vmax (human thrombin; compound 0.325 mM (5 μg)): 0.233 ± 0.010 mU/min
Kcat (human thrombin; compound 0.65 mM (10 μg)): 54.42 ± 0.81 s⁻¹
Vmax (human thrombin; compound 0.65 mM (10 μg)): 0.189 ± 0.007 mU/min
Kcat (human thrombin; compound 1.3 mM (20 μg)): 48.31 ± 1.05 s⁻¹
Vmax (human thrombin; compound 1.3 mM (20 μg)): 0.167 ± 0.008 mU/min
Vmax value of thrombin decreased by, fold of non-treated (human thrombin; compound 0.065–1.3 mM): 0.44–0.86 fold
Km value of thrombin reduced by, fold of non-treated (human thrombin; vs non-treated 0.566 ± 0.025 mM, compound 0.065–1.3 mM): 0.52–0.93 fold
Kcat values of thrombin reduced by, fold of non-treated (human thrombin; compound 0.065–1.3 mM): 0.43–0.86 fold
FXa activity (human FXa): significant reductions
IC50 (human FXa): 4210 µM
Kik/Kiv (human FXa): 5.6
Kcat (human FXa; compound 0.065 mM (1 μg)): 24.20 ± 0.27 s⁻¹
Vmax (human FXa; compound 0.065 mM (1 μg)): 0.66 ± 0.04 mU/min
Kcat (human FXa; compound 0.13 mM (2 μg)): 22.34 ± 0.41 s⁻¹
Vmax (human FXa; compound 0.13 mM (2 μg)): 0.61 ± 0.02 mU/min
Kcat (human FXa; compound 0.325 mM (5 μg)): 22.23 ± 0.35 s⁻¹
Vmax (human FXa; compound 0.325 mM (5 μg)): 0.60 ± 0.03 mU/min
Kcat (human FXa; compound 0.65 mM (10 μg)): 20.67 ± 0.32 s⁻¹
Vmax (human FXa; compound 0.65 mM (10 μg)): 0.56 ± 0.03 mU/min
Kcat (human FXa; compound 1.3 mM (20 μg)): 18.56 ± 0.30 s⁻¹
Vmax (human FXa; compound 1.3 mM (20 μg)): 0.50 ± 0.04 mU/min
Ki (human FXa; read-out: Ki): 4190 µM
Ki (human FXa; [1]): 75 µM
inhibition type against FXa (human FXa): non-competitive inhibition
FXIIIa activity (human FXIIIa): significant reductions
IC50 (human FXIIIa): 1920 µM
Ki (human FXIIIa): 1920 µM
Kik/Kiv (human FXIIIa): 10.4
Kcat (human FXIIIa; compound 0.065 mM (1 μg)): 89.3 ± 0.09 s⁻¹
Vmax (human FXIIIa; compound 0.065 mM (1 μg)): 0.143 ± 0.02 mU/min
Kcat (human FXIIIa; compound 0.13 mM (2 μg)): 84.5 ± 0.07 s⁻¹
Vmax (human FXIIIa; compound 0.13 mM (2 μg)): 0.135 ± 0.03 mU/min
Kcat (human FXIIIa; compound 0.325 mM (5 μg)): 80.5 ± 0.05 s⁻¹
Vmax (human FXIIIa; compound 0.325 mM (5 μg)): 0.129 ± 0.04 mU/min
Kcat (human FXIIIa; compound 0.65 mM (10 μg)): 80.5 ± 0.09 s⁻¹
Vmax (human FXIIIa; compound 0.65 mM (10 μg)): 0.129 ± 0.03 mU/min
Kcat (human FXIIIa; compound 1.3 mM (20 μg)): 68.7 ± 0.08 s⁻¹
Vmax (human FXIIIa; compound 1.3 mM (20 μg)): 0.110 ± 0.04 mU/min
inhibition type against FXIIIa (human FXIIIa): non-competitive inhibition type
SMILES: COc1ccc(C(=O)O)cc1O [IVA, isovanillic acid]
APTT, dependence on concentration (human plasma): increased APTT in a concentration-dependent manner
APTT, fold of control (human plasma): 1.70 fold
activated partial thromboplastin time (APTT) (human plasma): 67.0 ± 4.0 s

SMILES: O=C(O)c1ccc(O)c(O)c1 [PA, protocatechuic acid]
inhibition type against thrombin (human thrombin): mixed inhibition type
activity of thrombin (human thrombin): significantly decreased
IC50 (human thrombin): 1110 µM
Ki (human thrombin): 1110 µM
Kik/Kiv (human thrombin): 125.4
Kcat (human thrombin; compound 0.065 mM (1 μg)): 101.67 ± 1.44 s⁻¹
Vmax (human thrombin; compound 0.065 mM (1 μg)): 0.352 ± 0.019 mU/min
Kcat (human thrombin; compound 0.13 mM (2 μg)): 93.29 ± 1.60 s⁻¹
Vmax (human thrombin; compound 0.13 mM (2 μg)): 0.323 ± 0.021 mU/min
Kcat (human thrombin; compound 0.325 mM (5 μg)): 85.00 ± 2.13 s⁻¹
Vmax (human thrombin; compound 0.325 mM (5 μg)): 0.295 ± 0.015 mU/min
Kcat (human thrombin; compound 0.65 mM (10 μg)): 71.98 ± 1.95 s⁻¹
Vmax (human thrombin; compound 0.65 mM (10 μg)): 0.249 ± 0.009 mU/min
Kcat (human thrombin; compound 1.3 mM (20 μg)): 69.08 ± 1.15 s⁻¹
Vmax (human thrombin; compound 1.3 mM (20 μg)): 0.239 ± 0.008 mU/min
Vmax value of thrombin decreased by, fold of non-treated (human thrombin; compound 0.065–1.3 mM): 0.65–0.92 fold
Kcat values of thrombin reduced by, fold of non-treated (human thrombin; compound 0.065–1.3 mM): 0.63–0.93 fold
FXa activity (human FXa): significant reductions
IC50 (human FXa): 3090 µM
Kik/Kiv (human FXa): 1.6
Kcat (human FXa; compound 0.065 mM (1 μg)): 21.36 ± 0.54 s⁻¹
Vmax (human FXa; compound 0.065 mM (1 μg)): 0.58 ± 0.03 mU/min
Kcat (human FXa; compound 0.13 mM (2 μg)): 17.35 ± 0.48 s⁻¹
Vmax (human FXa; compound 0.13 mM (2 μg)): 0.47 ± 0.02 mU/min
Kcat (human FXa; compound 0.325 mM (5 μg)): 14.67 ± 0.25 s⁻¹
Vmax (human FXa; compound 0.325 mM (5 μg)): 0.40 ± 0.02 mU/min
Kcat (human FXa; compound 0.65 mM (10 μg)): 12.09 ± 0.29 s⁻¹
Vmax (human FXa; compound 0.65 mM (10 μg)): 0.33 ± 0.01 mU/min
Kcat (human FXa; compound 1.3 mM (20 μg)): 11.62 ± 0.31 s⁻¹
Vmax (human FXa; compound 1.3 mM (20 μg)): 0.32 ± 0.01 mU/min
Ki (human FXa; read-out: Ki): 3070 µM
Ki (human FXa; [1]): 23 µM
inhibition type against FXa (human FXa): uncompetitive inhibition type
FXIIIa activity (human FXIIIa): significant reductions
IC50 (human FXIIIa): 1640 µM
Ki (human FXIIIa): 1630 µM
Kik/Kiv (human FXIIIa): 6.1
Kcat (human FXIIIa; compound 0.065 mM (1 μg)): 91.1 ± 0.03 s⁻¹
Vmax (human FXIIIa; compound 0.065 mM (1 μg)): 0.146 ± 0.03 mU/min
Kcat (human FXIIIa; compound 0.13 mM (2 μg)): 84.4 ± 0.06 s⁻¹
Vmax (human FXIIIa; compound 0.13 mM (2 μg)): 0.135 ± 0.02 mU/min
Kcat (human FXIIIa; compound 0.325 mM (5 μg)): 80.1 ± 0.05 s⁻¹
Vmax (human FXIIIa; compound 0.325 mM (5 μg)): 0.128 ± 0.03 mU/min
Kcat (human FXIIIa; compound 0.65 mM (10 μg)): 71.8 ± 0.07 s⁻¹
Vmax (human FXIIIa; compound 0.65 mM (10 μg)): 0.115 ± 0.04 mU/min
Kcat (human FXIIIa; compound 1.3 mM (20 μg)): 62.5 ± 0.04 s⁻¹
Vmax (human FXIIIa; compound 1.3 mM (20 μg)): 0.100 ± 0.02 mU/min
inhibition type against FXIIIa (human FXIIIa): non-competitive inhibition type
APTT, fold of control (human plasma): 1.33 fold
activated partial thromboplastin time (APTT) (human plasma): 52.5 ± 4.4 s
